The values that follow come from patent US6900200B2, “Tricyclic hydroxy carboxamides and derivatives thereof tocolytic oxytocin receptor antagonists” (Wyeth, priority 2001, dated 2005).

Data set [1] has as its target T1, human vasopressin V2 receptor subtype (Homo sapiens, UniProt P30518).
T1 construct: host or cells: CHO cells, pZeoSV vector
Briefly: Vasopressin binding in CHO cell membranes expressing human vasopressin V2 subtype receptors ([3H]arginine vasopressin radioligand binding). Particulars: for IC50: value printed in parentheses; for inhibition at 0.1 µM: @ 100 nM. From the text:
Vasopressin Binding in Chinese Hamster Ovary Cell Membranes Expressing Human Vasopressin V2 Subtype Receptors
Chinese Hamster Ovary (CHO) cells stably transfected with the human V2 subtype receptors were obtained from M. Thibonnier, Case Western Reserve University School of Medicine, Cleveland, Ohio.
A. Passaging and Amplification of Cells
CHO cells transfected with the human vasopressin V2 subtype receptors obtained from M. Thibonnier (pZeoSV vector) are allowed to grow to confluency (approx. >90%) in T-150 flasks under sterile conditions, in a cell culture medium ofF-12 Nutrient Mixture (HAM) with L-glutamine (Gibco Cat. #11765-054) containing 15 mM HEPES (Gibco Cat. #15630-080), 1% antibiotic/antimycotic (add 5 mL 100×, Gibco Cat. #15240-062 per 500 mL F-12), 250 μg/mL Zeocin (add 1.25 mL of 100 mg/mL Invitrogen R-250-01 per 500 mL F-1 2) and 10% Fetal Bovine Serum (Qualified, heat inactivated, Gibco Cat. #16140-063). The medium is removed by aspiration and the cells washed with 10 mL of Hank's Balanced Salt solution (Gibco Cat. #14175-095). The salt solution is removed by aspiration and the cells trypsinized with 5 mL of trypsin-EDTA (0.05% trypsin, 0.53 mM EDTA-4Na, Gibco Cat. #25300-070) for 1 min. The trypsin is removed by aspiration and the cells dislodged by tapping. Cell Culture medium (e.g. 30 mL for 1:30 split) is immediately added and mixed well to inactivate trypsin. 1 mL of detached cells is added to new culture flasks containing fresh Cell Culture medium (e.g. into 25 mL per T-150 flask), and mixed gently. The cells are incubated at 37° C. in 5% CO2. The medium is changed at 3 to 4 day interval (or as appropriate). The cells grow to confluency (approx. >75%-95%) within 7-8 days. All steps are done under sterile conditions.
The cells are washed twice gently with Hank's Balanced Salt solution (e.g. use 10 mL per T-150 flask). The excess solution is removed and the cells bathed for 15-30 min. in an enzyme-free Cell Dissociation Buffer (e.g. use 8 mL Hank's Based, Gibco Cat. # 13150-016 per T-150 flask) until cells are loosened. The contents are transferred to centrifuge tubes (50 mL) kept in ice bath. All subsequent steps are done at 4° C. The tubes are centrifuged at 300×g for 15 min (1380 rpm on SORVAL, Model RT6000D, using the rotor for 50 mL tubes). The supernatant is discarded and the cells suspended in homogenizing buffer (10 mM Tris-HCl containing 0.25 M sucrose and 1 mM EDTA, pH 7.4) ensuring that the volume of the buffer is about ten times the volume of the cell pellet. The cells are pooled into a centrifuge tube (50 mL) and homogenized with Polytron at setting 6 for 10 sec. The homogenate is transferred into a Potter-Elvjehm homogenizer and homogenized with 3 strokes. The homogenate is centrifuged at 1500×g for 60 min at 4° C. (3100 rpm using SORVAL, model RT6000D, using the rotor for 50 mL tubes). The pellet is discarded. The supernatant is centrifuged at 100,000×g for 60 min. at 4° C. (Beckman L8-80M ultracentrifuge; spin at 37,500 rpm with rotor type 70 Ti for 50 mL tubes; 38,000 rpm with type 80Ti for 15 mL tubes; or 35,800 rpm with rotor type 45Ti). The supernantant is discarded and the pellet suspended in 3 to 4 mL of Tris buffer (50 mM TRIS—HCl, pH 7.4). The protein content is estimated by the Bradford or Lowry method. The volume of the membrane suspension is adjusted with the membrane buffer (50 mM Tris-HCl containing 0.1% BSA and 0.1 mM PMSF) to give 3.0 mg/mL (or as appropriate) of protein. The membranes are aliquoted and stored at −70. ° C.
C. Radioligand Binding Assay
In wells of a 96-well format microtiter plate, is added 90, 110 or 130 μL (to make up a final volume of 200 μL) of assay buffer containing 50 mM of Tris-HCl (pH 7.4), […], 1 mg % aprotinin, 1 mg % leupeptin, 2 mg % 1,10-phenanthroline, 10 mg % trypsin inhibitor, and 0.1 mM PMSF. The inhibitors are added on the day of the experiment. […]

The term melting point denotes the temperature of the solid-liquid transition. As a reminder, the IC50 is the midpoint of a concentration-inhibition curve. On to `Cc1cc(C(=O)N2Cc3ccc(C(=O)N(C)CC(O)CO)n3Cc3ccccc32)ccc1-c1ccccc1C(F)(F)F` (centres unmarked) [Example 2, 10-[(2-Methyl-2′-trifluoromethyl-[1,1′-biphenyl]-4-yl)carbonyl]-10,11-dihydro-5H-pyrrolo[2,1-c][1,4]benzodiazepine-3-carboxylic acid (2,3-dihydroxy-propyl)-methyl-amide], for which the melting point lay within 169 to 172 °C. Further, in data set [1], the IC50 was determined as 0.633 µM.
As usually defined, the inhibition is the relative decrease from the control value, in per cent. `COCCN1CCN(C(=O)c2ccc3n2Cc2ccccc2N(C(=O)c2ccc(-c4ccccc4C(F)(F)F)c(C)c2)C3)CC1` [Example 7, Methyl 2-{4-[(10-{[2-methyl-2′-trifluoromethyl-[1,1′-biphenyl]-4-yl]carbonyl}-10,11-dihydro-5H-pyrrolo[2,1-c][1,4]benzodiazepin-3-yl)carbonyl]piperazin-1-yl}ethyl ether] returned a melting point of 140 to 144 °C. In data set [1], the inhibition at 0.1 µM stood at 16%.
For `COc1cc2c(cc1OC)N(C(=O)c1ccc(-c3ccccc3C(F)(F)F)c(C)c1)Cc1ccc(C(=O)N(C)CC(O)CO)n1C2` (centres unmarked) [Example 18, N-(2,3-Dihydroxypropyl)-7,8-dimethoxy-N-methyl-10-{[2-methyl-2′-trifluoromethyl-[1,1′-biphenyl]-4-yl]carbonyl}-10,11-dihydro-5H-pyrrolo[2,1-c][1,4]benzodiazepine-3-carboxamide], the melting point fell in the range of 184 to 186 °C. In addition, the inhibition at 0.1 µM in data set [1] is -5%.
Taken in the same sequence, the figures for `COc1cc2c(cc1OC)N(C(=O)c1ccc(-c3ccccc3C(F)(F)F)c(C)c1)Cc1ccc(C(=O)N(CCO)CCO)n1C2` [Example 19, N,N-Bis(2-Hydroxyethyl)-7,8-dimethoxy-10-{[2-methyl-2′-trifluoromethyl-[1,1′-biphenyl]-4-yl]carbonyl}-10,11-dihydro-5H-pyrrolo[2,1-c][1,4]benzodiazepine-3-carboxamide] were 130 to 132 °C and 3%.
Consider `COc1cc(C(=O)N2Cc3ccc(C(=O)N(C)CC(O)CO)n3Cc3ccccc32)ccc1-c1ccccc1C(F)(F)F` (centres unmarked) [Example 21, N-(2,3-Dihydroxypropyl)-10-{[2-methoxy-2′-trifluoromethyl-[1,1′-biphenyl]-4-yl]carbonyl}-N-methyl-10,11-dihydro-5H-pyrrolo[2,1-c][1,4]benzodiazepine-3-carboxamide], for which the melting point was 119 to 123 °C. In data set [1], the IC50 stood at 0.311 µM.
Turning to `COc1cc(C(=O)N2Cc3ccc(C(=O)N(C)CC(O)CN(C)C)n3Cc3ccccc32)ccc1-c1ccccc1C(F)(F)F` (centres unmarked) [Example 22, N-[(3-Dimethylamino)-2-hydroxy-propyl]-10-{[2-methoxy-2′-trifluoromethyl-[1,1′-biphenyl]-4-yl]carbonyl}-N-methyl-10,11-dihydro-5H-pyrrolo[2,1-c][1,4]benzodiazepine-3-carboxamide], the melting point is 120 to 125 °C (dec.). Also, in data set [1], the IC50 was determined as 1.14 µM.
In turn, `COc1cc2c(cc1OC)N(C(=O)c1ccc(-c3ccccc3OC)c(C)c1)Cc1ccc(C(=O)N(C)C[C@H](O)[C@@H](O)[C@H](O)[C@H](O)CO)n1C2` [Example 37, 7,8-Dimethoxy-10-[(2′-methoxy-2-methyl-[1,1′-biphenyl]-4-yl)carbonyl]-10,11-dihydro-5H-pyrrolo[2,1-c][1,4]benzodiazepine-3-carboxylic acid methyl-[(2S, 3R, 4R, 5R)-2,3,4,5,6-pentahydroxy-hexyl)-amide] gave a melting point of 110 to 120 °C. The inhibition at 0.1 µM in data set [1] came out at 7%.
Take `COc1ccccc1-c1ccc(C(=O)N2Cc3ccc(C(=O)N4CCN(CCO)CC4)n3Cc3ccccc32)cc1` [Example 47, [4-(2-Hydroxyethyl)-1-piperazinyl]{10-[(2′-methoxy[1,1′-biphenyl]-4-yl)carbonyl]-10,11-dihydro-5H-pyrrolo[2,1-c][1,4]benzodiazepin-3-yl}methanone]: the inhibition at 0.1 µM in data set [1] is 16%.
Same read-out and setting: the value for `Cc1cc(C(=O)N2Cc3ccc(C(=O)N4CCN(CCO)CC4)n3Cc3ccccc32)ccc1-c1ccccc1C(F)(F)F` [Example 48, [4-(2-Hydroxyethyl)-1-piperazinyl](10-{[2-methyl-2′-(trifluoromethyl)[1,1′-biphenyl]-4-yl)carbonyl}-10,11-dihydro-5H-pyrrolo[2,1-c][1,4]benzodiazepin-3-yl)methanone] was 11%.
In the case of `COc1cccc(-c2cc(OC)c(C(=O)N3Cc4ccc(C(=O)N5CCN(CCO)CC5)n4Cc4ccccc43)cc2Cl)c1` [Example 49, {10-[(6-Chloro-3,3′-dimethoxy[1,1′-biphenyl]-4-yl)carbonyl]-10,11-dihydro-5H-pyrrolo[2,1-c][1,4]benzodiazepin-3-yl}[4-(2-hydroxyethyl)-1-piperazinyl]methanone], in data set [1], the inhibition at 0.1 µM amounted to 21%.
As for `COc1cccc(-c2ccc(C(=O)N3Cc4ccc(C(=O)N5CCN(CCO)CC5)n4Cc4ccccc43)cc2OC)c1` [Example 50, {10-[(2,3′-Dimethoxy[1,1′-biphenyl]-4-yl)carbonyl]-10,11-dihydro-5H-pyrrolo[2,1-c][1,4]benzodiazepin-3-yl}[4-(2-hydroxyethyl)-1-piperazinyl]methanone], the inhibition at 0.1 µM in data set [1] came out at 16%.
`COc1cc(C(=O)N2Cc3ccc(C(=O)N4CCN(CCO)CC4)n3Cc3ccccc32)ccc1-n1c(C)ccc1C` [Example 52, {10-[4-(2,5-Dimethyl-1H-pyrrol-1-yl)-3-methoxybenzoyl]-10,11-dihydro-5H-pyrrolo[2,1-c][1,4]benzodiazepin-3-yl}[4-(2-hydroxyethyl)-1-piperazinyl]methanone]: the inhibition at 0.1 µM in data set [1] turned out to be 3%.
Take “{(2S)-1-[(10-{[2-Methoxy-2(trifluoromethyl)[1,1′-biphenyl]-4-yl]carbonyl}-10,11-dihydro-5H-pyrrolo[2,1-c][1,4]benzodiazepin-3-yl)carbonyl]pyrrolidin-2-yl}-methanol [Example 36]”: in data set [1], the IC50 worked out at 2.07 µM.
